Reference: ChEMBL document CHEMBL4765295, “Synthesis, pharmacological profile and 2D-QSAR studies of curcumin-amino acid conjugates as potential drug candidates” (Eur J Med Chem, 2020)
Several values for one entry are separate records, joined by “and”; a condition that tells them apart may be missing. Equal values may be shown once.

These molecules were tested on Rattus norvegicus (assay: Anti-inflammatory activity in Wistar rat assessed as inhibition of carrageenan-induced paw edema at 10 mg/kg, ip pretreated for 1 hr followed by carrageenan challenge and measured after 3 hr relative to control (reference value: 0.00 +/-0.1 %)). Conditions: time 4 hrs.
Format: functional

| Compound | inhibition in vivo at 10 mg/kg [%] |
| --- | --- |
| COc1cc(/C=C/C(=O)/C=C(O)/C=C/c2ccc(OC(=O)[C@H](C)NC(=O)OCC3c4ccccc4-c4ccccc43)c(OC)c2)ccc1OC(=O)[C@H](C)NC(=O)OCC1c2ccccc2-c2ccccc21 | 43 |

These molecules were tested on Rattus norvegicus (assay: Antiinflammatory activity in Wistar rat model of carrageenan-induced paw edema assessed as reduction in thickness of paw edema at 10 mg/kg, ip pretreated for 1 hr followed by carrageenan challenge and measured after 4 hrs (reference value: 1.40 +/-0.10 mm)). Conditions: time 5 hrs.
Format: functional

| Compound | Activity [mm] |
| --- | --- |
| COc1cc(/C=C/C(=O)/C=C(O)/C=C/c2ccc(OC(=O)[C@H](C)NC(=O)OCC3c4ccccc4-c4ccccc43)c(OC)c2)ccc1OC(=O)[C@H](C)NC(=O)OCC1c2ccccc2-c2ccccc21 | 0.62 |

The molecules below were run on Salmonella typhimurium (assay: Antibacterial activity against Salmonella typhimurium ATCC 19430 incubated for 18 hrs by agar dilution assay). Conditions: Salmonella enterica.
Format: functional, Salmonella enterica subsp. enterica serovar Typhimurium

| MIC | Compound |
| --- | --- |
| 0.25 µg/mL and 0.262 µM | COc1cc(/C=C/C(=O)/C=C(O)/C=C/c2ccc(OC(=O)[C@H](C)NC(=O)OCC3c4ccccc4-c4ccccc43)c(OC)c2)ccc1OC(=O)[C@H](C)NC(=O)OCC1c2ccccc2-c2ccccc21 |

What follows are molecules tested on Pseudomonas aeruginosa (assay: Antibacterial activity against Pseudomonas aeruginosa ATCC 27853 incubated for 18 hrs by agar dilution assay). Conditions: not given.
Format: functional

| MIC | Compound |
| --- | --- |
| 0.25 µg/mL and 0.262 µM | COc1cc(/C=C/C(=O)/C=C(O)/C=C/c2ccc(OC(=O)[C@H](C)NC(=O)OCC3c4ccccc4-c4ccccc43)c(OC)c2)ccc1OC(=O)[C@H](C)NC(=O)OCC1c2ccccc2-c2ccccc21 |

Each molecule was assayed on Rattus norvegicus (assay: Anti-inflammatory activity in Wistar rat assessed as inhibition of carrageenan-induced paw edema at 10 mg/kg, ip pretreated for 1 hr followed by carrageenan challenge and measured after 24 hr relative to control (reference value: 0.00 +/-0.3 %)). Conditions: time 25 hrs.
Format: functional

| Compound | inhibition in vivo at 10 mg/kg [%] |
| --- | --- |
| COc1cc(/C=C/C(=O)/C=C(O)/C=C/c2ccc(OC(=O)[C@H](C)NC(=O)OCC3c4ccccc4-c4ccccc43)c(OC)c2)ccc1OC(=O)[C@H](C)NC(=O)OCC1c2ccccc2-c2ccccc21 | 51 |

Each molecule was assayed on Peritoneal macrophage (assay: Antiinflammatory activity in […] mouse Peritoneal macrophages assessed as inhibition of LPS-induced NO production at 10 uM preincubated for 1 hr followed by LPS stimulation measured after 24 hrs by Griess method relative to control (reference value: 0.0 %)). Conditions: time 25 hrs.
Format: functional
Set-up: scale not given: the % may be the effect or the level left

| Compound | Activity [%] |
| --- | --- |
| COc1cc(/C=C/C(=O)/C=C(O)/C=C/c2ccc(OC(=O)[C@H](C)NC(=O)OCC3c4ccccc4-c4ccccc43)c(OC)c2)ccc1OC(=O)[C@H](C)NC(=O)OCC1c2ccccc2-c2ccccc21 | 20.22 |

The molecules below were run on Rattus norvegicus (assay: Antiinflammatory activity in Wistar rat model of carrageenan-induced paw edema assessed as reduction in thickness of paw edema at 10 mg/kg, ip pretreated for 1 hr followed by carrageenan challenge and measured after 1 hr (reference value: 2.41 +/-0.05 mm)). Conditions: time 1 hr after carrageenan.
Format: functional

| Compound | Activity [mm] |
| --- | --- |
| COc1cc(/C=C/C(=O)/C=C(O)/C=C/c2ccc(OC(=O)[C@H](C)NC(=O)OCC3c4ccccc4-c4ccccc43)c(OC)c2)ccc1OC(=O)[C@H](C)NC(=O)OCC1c2ccccc2-c2ccccc21 | 2.12 |

The molecules below were run on Rattus norvegicus (assay: Antiinflammatory activity in Wistar rat model of carrageenan-induced paw edema assessed as reduction in thickness of paw edema at 10 mg/kg, ip pretreated for 1 hr followed by carrageenan challenge and measured after 2 hrs (reference value: 2.06 +/-0.09 mm)). Conditions: time 3 hrs.
Format: functional

| Compound | Activity [mm] |
| --- | --- |
| COc1cc(/C=C/C(=O)/C=C(O)/C=C/c2ccc(OC(=O)[C@H](C)NC(=O)OCC3c4ccccc4-c4ccccc43)c(OC)c2)ccc1OC(=O)[C@H](C)NC(=O)OCC1c2ccccc2-c2ccccc21 | 1.59 |

The molecules below were run on Peritoneal macrophage (assay: Antiinflammatory activity in […] mouse Peritoneal macrophages assessed as reduction in LPS-induced NO production by measuring reduction in stimulation index at 10 uM preincubated for 1 hr followed by LPS stimulation measured after 24 hrs by Griess method (reference value: 27.31 +/- 2.56 uM)). Conditions: time 25 hrs.
Format: functional

| Compound | Activity [µM] |
| --- | --- |
| COc1cc(/C=C/C(=O)/C=C(O)/C=C/c2ccc(OC(=O)[C@H](C)NC(=O)OCC3c4ccccc4-c4ccccc43)c(OC)c2)ccc1OC(=O)[C@H](C)NC(=O)OCC1c2ccccc2-c2ccccc21 | 21.79 |

These molecules were tested on Rattus norvegicus (assay: Antiinflammatory activity in Wistar rat model of carrageenan-induced paw edema assessed as reduction in thickness of paw edema at 10 mg/kg, ip pretreated for 1 hr followed by carrageenan challenge and measured after 24 hrs (reference value: 0.83 +/-0.08 mm)). Conditions: time 25 hrs.
Format: functional

| Compound | Activity [mm] |
| --- | --- |
| COc1cc(/C=C/C(=O)/C=C(O)/C=C/c2ccc(OC(=O)[C@H](C)NC(=O)OCC3c4ccccc4-c4ccccc43)c(OC)c2)ccc1OC(=O)[C@H](C)NC(=O)OCC1c2ccccc2-c2ccccc21 | 0.41 |

What follows are molecules tested on Streptococcus pyogenes (assay: Antibacterial activity against Streptococcus pyogenes ATCC 19615 incubated for 18 hrs by agar dilution method). Conditions: not given.
Format: functional

| MIC | Compound |
| --- | --- |
| 0.5 µg/mL and 0.524 µM | COc1cc(/C=C/C(=O)/C=C(O)/C=C/c2ccc(OC(=O)[C@H](C)NC(=O)OCC3c4ccccc4-c4ccccc43)c(OC)c2)ccc1OC(=O)[C@H](C)NC(=O)OCC1c2ccccc2-c2ccccc21 |

The molecules below were run on Rattus norvegicus (assay: Anti-inflammatory activity in Wistar rat assessed as inhibition of carrageenan-induced paw edema at 10 mg/kg, ip pretreated for 1 hr followed by carrageenan challenge and measured after 1 hr relative to control (reference value: 0.00 +/-0.02 %)). Conditions: time 2 hrs.
Format: functional

| Compound | inhibition in vivo at 10 mg/kg [%] |
| --- | --- |
| COc1cc(/C=C/C(=O)/C=C(O)/C=C/c2ccc(OC(=O)[C@H](C)NC(=O)OCC3c4ccccc4-c4ccccc43)c(OC)c2)ccc1OC(=O)[C@H](C)NC(=O)OCC1c2ccccc2-c2ccccc21 | 12 |

The molecules below were run on Rattus norvegicus (assay: Anti-inflammatory activity in Wistar rat assessed as inhibition of carrageenan-induced paw edema at 10 mg/kg, ip pretreated for 1 hr followed by carrageenan challenge and measured after 2 hr relative to control (reference value: 0.00 +/-0.03 %)). Conditions: time 3 hrs.
Format: functional

| Compound | inhibition in vivo at 10 mg/kg [%] |
| --- | --- |
| COc1cc(/C=C/C(=O)/C=C(O)/C=C/c2ccc(OC(=O)[C@H](C)NC(=O)OCC3c4ccccc4-c4ccccc43)c(OC)c2)ccc1OC(=O)[C@H](C)NC(=O)OCC1c2ccccc2-c2ccccc21 | 23 |

The molecules below were run on Staphylococcus aureus (assay: Antibacterial activity against Staphylococcus aureus ATCC 25923 incubated for 18 hrs by agar dilution method). Conditions: not given.
Format: functional

| MIC | Compound |
| --- | --- |
| 0.5 µg/mL and 0.524 µM | COc1cc(/C=C/C(=O)/C=C(O)/C=C/c2ccc(OC(=O)[C@H](C)NC(=O)OCC3c4ccccc4-c4ccccc43)c(OC)c2)ccc1OC(=O)[C@H](C)NC(=O)OCC1c2ccccc2-c2ccccc21 |

The molecules below were run on Splenocyte (assay: Immunomodulatory activity in Swiss albino mouse splenocytes assessed as cell viability at 10 uM by measuring stimulation index incubated for 72 hrs in presence of mitogenic stimulus phytohaemagglutinin by MTT assay (reference value: 1.00 +/- 0.24)). Conditions: not given.
Format: functional

| Compound | Activity_index |
| --- | --- |
| COc1cc(/C=C/C(=O)/C=C(O)/C=C/c2ccc(OC(=O)[C@H](C)NC(=O)OCC3c4ccccc4-c4ccccc43)c(OC)c2)ccc1OC(=O)[C@H](C)NC(=O)OCC1c2ccccc2-c2ccccc21 | 2.22 |

These molecules were tested on Rattus norvegicus (assay: Anti-inflammatory activity in Wistar rat assessed as inhibition of carrageenan-induced paw edema at 10 mg/kg, ip pretreated for 1 hr followed by carrageenan challenge and measured after 4 hr relative to indomethacin). Conditions: time 5 hrs.
Format: functional

| Compound | inhibition in vivo at 10 mg/kg [%] |
| --- | --- |
| COc1cc(/C=C/C(=O)/C=C(O)/C=C/c2ccc(OC(=O)[C@H](C)NC(=O)OCC3c4ccccc4-c4ccccc43)c(OC)c2)ccc1OC(=O)[C@H](C)NC(=O)OCC1c2ccccc2-c2ccccc21 | 64 |

What follows are molecules tested on Rattus norvegicus (assay: Antiinflammatory activity in Wistar rat model of carrageenan-induced paw edema assessed as reduction in thickness of paw edema at 10 mg/kg, ip pretreated for 1 hr followed by carrageenan challenge and measured after 3 hrs (reference value: 1.79 +/-0.07 mm)). Conditions: time 4 hrs.
Format: functional

| Compound | Activity [mm] |
| --- | --- |
| COc1cc(/C=C/C(=O)/C=C(O)/C=C/c2ccc(OC(=O)[C@H](C)NC(=O)OCC3c4ccccc4-c4ccccc43)c(OC)c2)ccc1OC(=O)[C@H](C)NC(=O)OCC1c2ccccc2-c2ccccc21 | 1.02 |

Each molecule was assayed on Candida albicans (assay: Antifungal activity against Candida albicans incubated for 18 to 24 hrs by CLSI method). Conditions: time 18-24 hrs.
Format: functional

| MIC | Compound |
| --- | --- |
| 1 µg/mL and 1.05 µM | COc1cc(/C=C/C(=O)/C=C(O)/C=C/c2ccc(OC(=O)[C@H](C)NC(=O)OCC3c4ccccc4-c4ccccc43)c(OC)c2)ccc1OC(=O)[C@H](C)NC(=O)OCC1c2ccccc2-c2ccccc21 |

These molecules were tested on Rattus norvegicus (assay: Anti-inflammatory activity in Wistar rat assessed as inhibition of carrageenan-induced paw edema at 10 mg/kg, ip pretreated for 1 hr followed by carrageenan challenge and measured after 4 hr relative to control (reference value: 0.00 +/-0.4 %)). Conditions: time 5 hrs.
Format: functional

| Compound | inhibition in vivo at 10 mg/kg [%] |
| --- | --- |
| COc1cc(/C=C/C(=O)/C=C(O)/C=C/c2ccc(OC(=O)[C@H](C)NC(=O)OCC3c4ccccc4-c4ccccc43)c(OC)c2)ccc1OC(=O)[C@H](C)NC(=O)OCC1c2ccccc2-c2ccccc21 | 56 |

What follows are molecules tested on Splenocyte (assay: Immunomodulatory activity in Swiss albino mouse splenocytes assessed as cell viability at 10 uM by measuring inhibition of stimulation index incubated for 72 hrs in presence of mitogenic stimulus phytohaemagglutinin by MTT assay relative to indomethacin). Conditions: read-out: Activity.
Format: functional

| Compound | viability at 10 µM [%] |
| --- | --- |
| COc1cc(/C=C/C(=O)/C=C(O)/C=C/c2ccc(OC(=O)[C@H](C)NC(=O)OCC3c4ccccc4-c4ccccc43)c(OC)c2)ccc1OC(=O)[C@H](C)NC(=O)OCC1c2ccccc2-c2ccccc21 | 54.4 |
